Peptide text beside a SMILES is read from it.
Experiments:
[1] = Tryptophan fluorescent binding assay; settings: tryptophan fluorescence; 50 µM peptide, lipid titrated 0-5000 µM; phosphate buffered saline 1X, pH 7.4; values as lipid per peptide
Protocol: 50 µM ACP peptides and varied concentrations (concentrations: 0, 25, 50, 100, 150, 200, 250, 500, 1250, and 2500 µM) of POPC or POPC:POPG (3:1 ratio) large unilamellar vesicles were prepared in 10 mM phosphate buffer (pH 7.0). The solutions were measured after 1 h of incubation. Excitation was fixed at 280 nm (slit 9 nm) and emission was collected from 300 to 450 nm (slit 9 nm). The spectra were recorded using Cytation 5 Cell Imaging Multi‐Mode Reader from BioTek and were averaged by three scans.
Lipid Concentration-induced
Name Sequence† 50% Peptide Binding (L/P)
Extended Data Table 3 | Tryptophan binding assay. […]
peptide binding onto liposome. 50 µM peptides were fixed and incubated with titrated lipid (POPC vesicle […]
phosphate buffered saline (1X, pH 7.4). The lipid concentration that causes 50 % peptide binding was determined using tryptophan fluorescent binding assay and the values are shown as lipid per peptide.

[2] = ANTS/DPX liposome leakage assay; settings: 0.5 mM vesicles, peptide 0-20 µM, 3 h incubation, lipid per peptide; for Peptide Concentration-induced 50 % ANTS/DPX leakage at pH 4.8 (L/P), 3POPC/1POPG Vesicle / Peptide Concentration-induced 50 % ANTS/DPX leakage at pH 4.8 (L/P), POPC Vesicle: HCl-adjusted PBS 1X pH 4.8; for Peptide Concentration-induced 50 % ANTS/DPX leakage at pH 7.4 (L/P), 3POPC/1POPG Vesicle / Peptide Concentration-induced 50 % ANTS/DPX leakage at pH 7.4 (L/P), POPC Vesicle: PBS 1X pH 7.4, high ratio = more potent
Protocol: Vesicle preparation: 5 mM ANTS and 12.5 mM DPX were entrapped in 0.1 µm diameter extruded vesicles (either POPC or POPC/POPG at a ratio of 3:1) with lipids. Gel filtration chromatography of Sephadex G‐100 was used to remove external free ANTS/DPX from LUVs with entrapped contents. LUVs were diluted to 0.5 mM and used to measure the leakage activity by the addition of aliquots of ACPs. Leakage was measured after 3 h incubation. 10% Triton was used as the positive control to measure the maximum leakage of the vesicle. Fluorescence emission spectra were recorded using excitation and emission wavelength of 350 and 510 nm for ANTS/DPX using a BioTek Synergy H1 Hybrid Multi‐Mode Reader.
Peptide Concentration-induced Peptide Concentration-induced
Name Sequence† 50 % ANTS/DPX leakage 50 % ANTS/DPX leakage at pH 7.4 (L/P) at pH 4.8 (L/P)
POPC Vesicle 3POPC/1POPG Vesicle POPC Vesicle 3POPC/1POPG Vesicle […]
Extended Data Table 4 | Peptide concentration-induced 50 % ANTS/DPX liposome leakage. 0.5 mM POPC and 3POPC/1POPG vesicles were fixed and incubated with titrated peptide concentration (0, 0.02, […]
hydrochloric acid-adjusted phoshate buffered saline (1X, pH 4.8). The values are shown as lipid per

[3] = tested on: U2OS; format: cell-based, human; settings: 72 h
[4] = tested on: HMLER‐shEcad; experiment: cells; format: cell-based, human; settings: 72 h
Source text: (§1) […], and MCF-10A cells were maintained in MEGM with supplements and growth factors bovine pituitary extract, hydrocortisone, human epidermal growth factor, insulin, and gentamicin/amphotericin-B.

[5] = tested on: HMLER; experiment: cells; format: cell-based, human; settings: 72 h
Source text: as §1

[6] = tested on: MCF‐10A; experiment: cells; format: cell-based, human; settings: 72 h
Source text: as §1

[7] = tested on: HEK293T; experiment: cells; format: cell-based, human; settings: 72 h

SMILES | Lipid Concentration-induced 50% Peptide Binding (L/P), 3POPC/1POPG Vesicle [1] | Lipid Concentration-induced 50% Peptide Binding (L/P), POPC Vesicle [1] | Peptide Concentration-induced 50 % ANTS/DPX leakage at pH 4.8 (L/P), 3POPC/1POPG Vesicle [2] | Peptide Concentration-induced 50 % ANTS/DPX leakage at pH 4.8 (L/P), POPC Vesicle [2] | Peptide Concentration-induced 50 % ANTS/DPX leakage at pH 7.4 (L/P), 3POPC/1POPG Vesicle [2] | Peptide Concentration-induced 50 % ANTS/DPX leakage at pH 7.4 (L/P), POPC Vesicle [2] | IC50 [3] | IC50 [4] | IC50 [5] | IC50 [6] | IC50 [7]
CC(C)C[C@H](NC(=O)CN)C(=O)N[C@@H](CC(C)C)C(=O)N[C@@H](CC(=O)O)C(=O)N[C@@H](CC(C)C)C(=O)N[C@@H](CC(C)C)C(=O)N[C@@H](CCC(=O)O)C(=O)N[C@@H](CC(C)C)C(=O)N[C@@H](CC(C)C)C(=O)N[C@@H](CC(C)C)C(=O)N[C@@H](Cc1c[nH]cn1)C(=O)N[C@@H](C)C(=O)N[C@@H](C)C(=O)NCC(=O)N[C@@H](Cc1c[nH]c2ccccc12)C(N)=O [DEH] (H-GLLDLLELLLHAAGW-NH2) | 1.50 L/P | 0.75 L/P | 193 L/P | 63 L/P | 548 L/P | 620 L/P | 36.5 ± 3.92 µM | 3.6 ± 0.42 µM | 5.35 ± 1.91 µM | 20.2 ± 6.72 µM | 10.5 ± 4.67 µM
CC(C)C[C@H](NC(=O)CN)C(=O)N[C@@H](CC(C)C)C(=O)N[C@@H](CC(=O)O)C(=O)N[C@@H](CC(C)C)C(=O)N[C@@H](CC(C)C)C(=O)N[C@@H](CCCCN)C(=O)N[C@@H](CC(C)C)C(=O)N[C@@H](CC(C)C)C(=O)N[C@@H](CC(C)C)C(=O)N[C@@H](CCC(=O)O)C(=O)N[C@@H](C)C(=O)N[C@@H](C)C(=O)NCC(=O)N[C@@H](Cc1c[nH]c2ccccc12)C(N)=O [DKE] (H-GLLDLLKLLLEAAGW-NH2) | 0.46 L/P | 0.56 L/P | 469 L/P | 21 L/P | 411 L/P | 747 L/P | 9.93 ± 0.25 µM | 1.57 ± 0.33 µM | 2.1 µM | 4.75 ± 0.49 µM | 7.8 ± 1.41 µM
CC(C)C[C@H](NC(=O)CN)C(=O)N[C@@H](CC(C)C)C(=O)N[C@@H](CCC(=O)O)C(=O)N[C@@H](CC(C)C)C(=O)N[C@@H](CC(C)C)C(=O)N[C@@H](CCCCN)C(=O)N[C@@H](CC(C)C)C(=O)N[C@@H](CC(C)C)C(=O)N[C@@H](CC(C)C)C(=O)N[C@@H](CCCCN)C(=O)N[C@@H](C)C(=O)N[C@@H](C)C(=O)NCC(=O)N[C@@H](Cc1c[nH]c2ccccc12)C(N)=O [EKK] (H-GLLELLKLLLKAAGW-NH2) | 0.63 L/P | 1.50 L/P | 219 L/P | 60 L/P | 235 L/P | 1095 L/P | 12.2 ± 1.84 µM | 1.19 ± 0.4 µM | 1.72 ± 0.21 µM | 1.7 ± 0.11 µM | 3.35 ± 0.49 µM
CC(C)C[C@H](NC(=O)CN)C(=O)N[C@@H](CC(C)C)C(=O)N[C@@H](Cc1c[nH]cn1)C(=O)N[C@@H](CC(C)C)C(=O)N[C@@H](CC(C)C)C(=O)N[C@@H](CCC(=O)O)C(=O)N[C@@H](CC(C)C)C(=O)N[C@@H](CC(C)C)C(=O)N[C@@H](CC(C)C)C(=O)N[C@@H](CCC(=O)O)C(=O)N[C@@H](C)C(=O)N[C@@H](C)C(=O)NCC(=O)N[C@@H](Cc1c[nH]c2ccccc12)C(N)=O [HEE] (H-GLLHLLELLLEAAGW-NH2) | 0.50 L/P | 0.58 L/P | 122 L/P | 100 L/P | 792 L/P | 876 L/P | 47.5 ± 11 µM | 4.95 ± 0.49 µM | 6.5 ± 0.71 µM | 58 ± 41 µM | 10.2 ± 0.2 µM
CC(C)C[C@H](NC(=O)CN)C(=O)N[C@@H](CC(C)C)C(=O)N[C@@H](CC(=O)O)C(=O)N[C@@H](CC(C)C)C(=O)N[C@@H](CC(C)C)C(=O)N[C@@H](CCC(=O)O)C(=O)N[C@@H](CC(C)C)C(=O)N[C@@H](CC(C)C)C(=O)N[C@@H](CC(C)C)C(=O)N[C@@H](CCC(=O)O)C(=O)N[C@@H](C)C(=O)N[C@@H](C)C(=O)NCC(=O)N[C@@H](Cc1c[nH]c2ccccc12)C(N)=O [DEE] (H-GLLDLLELLLEAAGW-NH2) | 0.38 L/P | 0.63 L/P | 164 L/P | 110 L/P | 597 L/P | 644 L/P | 61 ± 1.41 µM | 6.05 ± 2.76 µM | 5.55 ± 0.35 µM | 8.4 ± 1.56 µM | 9.91 ± 0.44 µM
CC(C)C[C@H](NC(=O)CN)C(=O)N[C@@H](CC(C)C)C(=O)N[C@@H](CC(=O)O)C(=O)N[C@@H](CC(C)C)C(=O)N[C@@H](CC(C)C)C(=O)N[C@@H](CCCCN)C(=O)N[C@@H](CC(C)C)C(=O)N[C@@H](CC(C)C)C(=O)N[C@@H](CC(C)C)C(=O)N[C@@H](Cc1c[nH]cn1)C(=O)N[C@@H](C)C(=O)N[C@@H](C)C(=O)NCC(=O)N[C@@H](Cc1c[nH]c2ccccc12)C(N)=O [DKH] (H-GLLDLLKLLLHAAGW-NH2) | 0.46 L/P | 10.00 L/P | 58 L/P | 41 L/P | 274 L/P | 614 L/P | 21.1 ± 3.01 µM | 2.8 ± 0.28 µM | 3.45 ± 0.07 µM | 7.05 ± 0.21 µM | 6.15 ± 1.34 µM
CC(C)C[C@H](NC(=O)CN)C(=O)N[C@@H](CC(C)C)C(=O)N[C@@H](CCCCN)C(=O)N[C@@H](CC(C)C)C(=O)N[C@@H](CC(C)C)C(=O)N[C@@H](Cc1c[nH]cn1)C(=O)N[C@@H](CC(C)C)C(=O)N[C@@H](CC(C)C)C(=O)N[C@@H](CC(C)C)C(=O)N[C@@H](CCCCN)C(=O)N[C@@H](C)C(=O)N[C@@H](C)C(=O)NCC(=O)N[C@@H](Cc1c[nH]c2ccccc12)C(N)=O [KHK] (H-GLLKLLHLLLKAAGW-NH2) | 0.38 L/P | 0.17 L/P | 53 L/P | 140 L/P | 193 L/P | 1153 L/P | 12.9 ± 1.24 µM | 1.4 ± 0.14 µM | 2.59 ± 0.92 µM | 1.81 ± 0.05 µM | 3.55 ± 0.78 µM
